Assay results: patent US20260137820A1, “TRIFUNCTIONAL COMPOUND AND USE THEREOF” (PEKING UNIVERSITY, priority 2022, published 2026)

Key:
HT-1080-FAP cells = assay: Determination of IC50 in cell experiment (competition with ^68Ga-FAPI-04); assay type: cell-based; conditions: Homo sapiens; vs 0.75 nM ^68Ga-FAPI-04, 37° C., 1 hour
Method: Cell model: A human fibrosarcoma cell line (HT-1080-FAP) with high FAP expression was constructed by transfection of an FAP plasmid into a human fibrosarcoma cell line (HT-1080) by WuXi Biologics (China).
HT-1080-FAP cells were inoculated into a 24-well plate 24 hours in advance, with the density being about 30% (calculated and estimated), 10^5 cells (countable) per well. 0.5 mL of a complete medium was added. The medium was changed to a serum-free medium. 12 groups of FAPI-CB-01 solutions with a concentration gradient of 0-5000 nM were set up, with internal replicates n=4 for each group. […] 0.75 nM ^68Ga-FAPI-04 was added to each well, followed by incubation at 37° C. for 1 hour. After washing twice with cold PBS and lysis, the radioactivity count was measured.

FAP, DPP-4 and PREP = assay: Binding selectivity to homologous proteins (competitive inhibition of enzyme substrate, IC50); assay type: biochemical; conditions: from IC50 values, pNA release
Method: Taking FAP target as an example, homologous proteins thereof include, but are not limited to, DPP-4 and PREP. The structural similarity thereof may lead to a decreased binding selectivity of the modified precursor molecules for the homologous proteins, resulting in an increased uptake in non-target organs.
The binding selectivity for homologous proteins was determined by a competitive inhibition experiment on the substrate of the enzymes, and the binding/inhibition selectivity thereof is indirectly evaluated by the median inhibitory concentration (IC50) values obtained.
By reference to the method described in Extended Structure-Activity Relationship and Pharmacokinetic Investigation of (4-Quinolinoyl)glycyl-2-cyanopyrrolidine Inhibitors of Fibroblast Activation Protein (FAP). Journal of Medicinal Chemistry 57, 3053-3074 (2014), published by Jansen et al., the initial rate of p-nitroaniline (pNA) released from the substrate (absorption at 405 nm) was measured by using a microplate reader (PerkinElmer, Victor™ X5) at 37° C. in a final volume of 200 μL to determine the kinetic properties of the enzyme activity. […]
The determination method for IC50 on FAP is as follows: the substrate Z-Gly-Pro-p-nitroanilide (50 μM, Cat #G-58468, HEOWNS) was used to measure FAP activity at pH 7.4. […] The mixture was then incubated at 37° C. for 6 hours, and the release of pNA was then measured. […]

N#C[C@@H]1CC(F)(F)CN1C(=O)CNC(=O)c1ccnc2ccc(OCCCN3CCN(C(=O)[C@H](CCCCNC(=O)c4ccc(OS(=O)(=O)F)cc4)NC(=O)CN4CCN(CC(=O)O)CCN(CC(=O)O)CCN(CC(=O)O)CC4)CC3)cc12 [FAPI-CB-01]
IC50 (HT-1080-FAP cells): 11.6 ± 0.32 nM | selectivity to FAP protein over homologous proteins DPP-4 and PREP (FAP, DPP-4 and PREP): high selectivity
